Values quoted from earlier work as cited in US12156864B2, “Analogs of cyclobenzaprine and amitryptilene” (TONIX PHARMACEUTICALS HOLDING CORP, priority 2017, dated 2024).

Tests used:
[1] = humans; metabolite formed via pathway b (N-dealkylation)
fibromyalgia patients = details: cyclobenzaprine 10 to 40 mg, 12-week period
[2] = target: serotonin-2A (5-HT2A) receptor (Homo sapiens, UniProt P28223)
[3] = target: histaminergic1 (H1) receptor (Homo sapiens, UniProt P35367)
patients = details: oral doses sufficient to treat PTSD-associated sleep disorders
PTSD combat subsample = details: combat subsample (N=77) of a pooled analysis
[4] = test system: veterans and males with PTSD

serotonin-2A (5-HT2A) receptor, sequence (P28223 whole entry, species assumed): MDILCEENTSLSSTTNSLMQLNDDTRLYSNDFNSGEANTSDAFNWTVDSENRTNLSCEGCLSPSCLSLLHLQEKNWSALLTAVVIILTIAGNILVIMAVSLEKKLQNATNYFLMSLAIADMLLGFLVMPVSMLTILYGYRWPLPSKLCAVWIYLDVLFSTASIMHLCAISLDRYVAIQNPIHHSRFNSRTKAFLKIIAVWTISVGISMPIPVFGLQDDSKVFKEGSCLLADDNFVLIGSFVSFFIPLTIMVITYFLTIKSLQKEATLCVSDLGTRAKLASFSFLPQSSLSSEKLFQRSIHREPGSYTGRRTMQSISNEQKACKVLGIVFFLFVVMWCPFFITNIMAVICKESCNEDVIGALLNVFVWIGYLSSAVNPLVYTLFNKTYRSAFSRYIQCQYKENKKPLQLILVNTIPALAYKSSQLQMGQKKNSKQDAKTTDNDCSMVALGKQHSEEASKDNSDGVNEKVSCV
histaminergic1 (H1) receptor, sequence (P35367 whole entry): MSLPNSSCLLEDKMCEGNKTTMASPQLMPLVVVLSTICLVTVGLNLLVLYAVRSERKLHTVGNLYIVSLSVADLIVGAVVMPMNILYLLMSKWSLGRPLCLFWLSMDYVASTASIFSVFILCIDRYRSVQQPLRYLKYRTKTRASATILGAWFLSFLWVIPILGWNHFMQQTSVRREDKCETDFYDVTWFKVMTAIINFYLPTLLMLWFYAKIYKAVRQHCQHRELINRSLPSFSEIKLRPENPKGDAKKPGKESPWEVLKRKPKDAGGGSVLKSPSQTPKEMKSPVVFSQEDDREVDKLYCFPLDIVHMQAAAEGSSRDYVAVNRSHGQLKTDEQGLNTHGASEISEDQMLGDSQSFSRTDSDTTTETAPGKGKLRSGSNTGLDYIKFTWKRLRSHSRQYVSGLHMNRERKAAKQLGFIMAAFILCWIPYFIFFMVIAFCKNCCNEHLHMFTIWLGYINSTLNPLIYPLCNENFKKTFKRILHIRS

SMILES: CNCCC=C1c2ccccc2C=Cc2ccccc21 [nor-cyclobenzaprine]
- half-life [1]: ~48 h

SMILES: CN(C)CCC=C1c2ccccc2C=Cc2ccccc21 [cyclobenzaprine, 3-(5H-dibenzo[a,d]cyclohepten-5-ylidene)-N,N-dimethyl-1-propanamine]
- quality of sleep and pain score (fibromyalgia patients): significantly improved
- total number of tender points and muscle tightness (fibromyalgia patients): reduction
- binding and antagonist activity at 5-HT2A receptor [2]: high affinity binding and antagonist activity
- binding and antagonist activity at α1-adrenergic receptor (α1-adrenergic receptor): high affinity binding and antagonist activity
- binding and antagonist activity at H1 receptor [3]: high affinity binding and antagonist activity
- next-day side effect (patients): drowsiness the next day

SMILES: COc1ccc(C(CN(C)C)C2(O)CCCCC2)cc1 (stereo not drawn) [venlafaxine ER]
- effect on PTSD or disability (PTSD combat subsample): no effect

SMILES: CN[C@H]1CC[C@@H](c2ccc(Cl)c(Cl)c2)c2ccccc21 [Sertraline]
- efficacy in PTSD [4]: failed to show efficacy
